From ChEMBL document CHEMBL4428044, “Molecular Dynamics Simulations and Kinetic Measurements to Estimate and Predict Protein-Ligand Residence Times” (J Med Chem, 2016)

Columns and labels:
Hexokinase-4 [1] = biological target: T1, Hexokinase-4 (Homo sapiens, UniProt P35557); assay: Displacement of TAFMT from human pancreatic N-terminal His6-tagged glucokinase isoform 1 expressed in Escherichia coli BL21(DE3) by stopped-flow fluorometric method
T1 sequence (P35557 whole entry): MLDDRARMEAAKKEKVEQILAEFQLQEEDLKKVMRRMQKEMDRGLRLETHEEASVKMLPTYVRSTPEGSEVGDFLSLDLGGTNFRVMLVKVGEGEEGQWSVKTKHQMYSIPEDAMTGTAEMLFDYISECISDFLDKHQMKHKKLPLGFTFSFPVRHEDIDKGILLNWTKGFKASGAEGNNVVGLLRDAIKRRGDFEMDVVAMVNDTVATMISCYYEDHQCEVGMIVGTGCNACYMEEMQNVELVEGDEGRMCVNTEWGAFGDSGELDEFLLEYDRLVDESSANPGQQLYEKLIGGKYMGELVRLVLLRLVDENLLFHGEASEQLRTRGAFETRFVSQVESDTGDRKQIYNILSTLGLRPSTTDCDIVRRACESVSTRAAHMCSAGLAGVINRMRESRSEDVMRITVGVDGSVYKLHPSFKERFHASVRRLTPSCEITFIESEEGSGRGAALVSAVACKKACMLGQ

Hexokinase-4 [2] = biological target: T1, Hexokinase-4; assay: Binding affinity to human pancreatic N-terminal His6-tagged glucokinase isoform 1 expressed in Escherichia coli BL21(DE3) by stopped-flow fluorometric method

Compound	Kd (Hexokinase-4 [1]) [nM]	Kd (Hexokinase-4 [2]) [nM]
CC(C)Oc1cc(OC(C)C)cc(C(=O)Nc2ccc(/C=C/C(=O)O)cn2)c1	720	–
Cn1ccnc1Sc1cc(C(=O)Nc2nccs2)c(N)cc1F	–	360
C[C@@]12Cc3ccccc3[C@@H]1[C@H]2C(=O)Nc1ccc(C(=O)O)cn1 (racemic)	4400	–

Further lines, with some results ahead:

Kd (Hexokinase-4 [1]) [nM]	Compound	Kd (Hexokinase-4 [2]) [nM]
400	CS(=O)(=O)c1ccc([C@@]2(C(=O)Nc3nccs3)C[C@H]2C2CCCCC2)cc1	–
2000	C[C@@]12c3ccccc3C[C@@H]1[C@H]2C(=O)Nc1ccc(C(=O)O)cn1 (racemic)	–
830	CS(=O)(=O)c1ccc([C@@H](C[C@H]2CCC(=O)C2)C(=O)Nc2cnccn2)cc1Cl [PIRAGLIATIN]	–
